Laboratory results as given in patent US20210261971A1, “COMPOSITIONS AND METHODS FOR AMELIORATING TISSUE INJURY, ENHANCING LIVER REGENERATION AND STEM CELL THERAPIES” (UNIVERSITY OF SOUTHERN CALIFORNIA, priority 2018, published 2021).
“Also recorded” adds a separate entry of the source. Read-outs that look alike come from different tables or passages of the source.

How the values were obtained:
Assay type in all cases: in vivo, rat
BM sprocs = test: Hepatic engraftment of GFP+ BM sprocs after PH (% GFP+ LSECs, EGFP bone marrow transplant)
Excerpt: FIG. 7D illustrates the percentage of liver sinusoidal endothelial cells (LSECs) that are bone marrow-derived, i.e. derived from BM sprocs (y-axis labeled % GFP+ LSECs). Hepatic engraftment determined as the percentage of bone marrow-derived LSECs after PH is enhanced by MMP-9 ASO or intraportal MMP inhibitor, whereas systemic inhibition of MMP by doxycycline or intraperitoneal MMP inhibitor reduces hepatic engraftment of BM sprocs. Rats were transplanted with bone marrow from a transgenic EGFP rat to allow tracking of bone marrow cells. Rats were treated with one month of ASO, 2 days of doxycycline, or infusion with the MMP inhibitor followed by partial hepatectomy. On day 2 LSECs were isolated and the percentage of GFP+ LSECs was determined by flow cytometry.
Bone marrow transplantation. BM cells were obtained from one tibia and femur from the donor. Recipients underwent 1,000 cGy total body irradiation and were injected via tail vein with 50 million BM cells. Rats received oxytetracycline (200 mg/ml) diluted 1:1,000 in the drinking water starting two days before irradiation and continuing until one week after irradiation. BM was allowed to engraft for 2 months before use. BM from Lew-Tg(CAG-EGFP)ys Lewis rats was transplanted into wild-type Lewis rats and cells were tracked by GFP expression.
LSEC isolation. LSECs were isolated by collagenase perfusion, iodixanol density gradient centrifugation, and centrifugal elutriation, as previously described (22, 23). Yields averaged 86×10^6 cells per normal rat liver (range 69-95×10^6) with average viability of 94% (range 91-96%). Purity of the cells was 99%, as determined by uptake of formaldehyde-treated serum albumin (kind gift from Bard Smedsrod, University of Tromso, Tromso, Norway), a function specific to LSECs. Cells isolated by this protocol have an appropriate range of fenestrae organized in sieve plates.
(§1) Flow cytometry. Flow cytometry was performed using a FACSCalibur (BD Biosciences). Isotype control antibodies were used to determine appropriate gates, voltages, and compensation required for multivariate flow cytometry. Cell Quest Pro software was used for analysis

[1] = test system: infused allogeneic sprocs; test: Model of stem cell therapy: engraftment of infused GFP+ allogeneic sprocs after PH; conditions: 3 months; control group 1.5%
Procedure: FIG. 8 graphically illustrates the percent LSECs as a function of engraftments of infused allogenic sprocs, and examines the concept that impairment of BM release of sprocs will favor engraftment of exogenously infused progenitor cells. […] When the percentage of cells derived from the GFP+ allogeneic progenitors was examined at 3 months, 1.5% were GFP+ in the control group versus 14% in the doxycycline group (data not shown). Method: rats were pre-treated with 2 days of doxycycline, 15 mg/kg intra-gastrically twice daily, followed by partial hepatectomy. 1 million sprocs were isolated from the livers of GFP+ rats and infused by tail vein injection. On day 2 and after 3 months LSECs were isolated and the number of GFP+ cells was determined by flow cytometry. Increased ischemia-reperfusion injury in Non-Alcoholic Fatty Liver Disease (NAFLD) due to impaired sdf-1 signaling to bone marrow sprocs can be attenuated by liver-selective MMP inhibition: Systemic MMP inhibition: Doxycycline (Sigma, St. Louis), 15 mg/kg i.g., was given twice daily starting 2 days before the relevant study. […] Purity of the cells was 99%, as determined by uptake of formaldehyde-treated serum albumin (kind gift from Bard Smedsrod, University of Tromso, Tromso, Norway), a function specific to LSECs. […]

Lewis rats [2] = test: Liver histology for toxicity of MMP inhibitors given to controls
Lewis rats [3] = test: Liver regeneration after two-thirds partial hepatectomy (PH): liver-to-body weight ratio, Ki-67 proliferation; conditions: for hepatocyte proliferation (ki-67) compared to respective control: day 2 after PH, intraportal infusion
Procedure: Partial (70%) hepatectomy was performed under general anesthesia with ketamine-xylazine (80-90 mg/kg ip). For 70% partial hepatectomy, the median and left lateral lobes were removed. Buprenorphine SR (1 mg/kg) was used postoperatively for analgesia.
Liver-selective MMP-9 inhibition: Knockdown of MMP-9 was achieved by injection of one of two MMP-9 antisense oligonucleotides that were a kind gift from Ionis Pharmaceuticals (Ions No 283953 and 283973, Carlsbad, Calif.; 20 mg/kg intraperitoneally twice weekly for 4 weeks.
Systemic MMP inhibition: Doxycycline (Sigma, St. Louis), 15 mg/kg i.g., was given twice daily starting 2 days before the relevant study. Control studies were performed with the same dose of a chemically modified tetracycline, isochlorotetracycline, which is only a weak MMP inhibitor. In other experiments, MMP-2/9 was inhibited by infusing 2-[(4-biphenylsulfonyl)amino]-3-phenyl-propionic acid, 100 μg/kg/h, intraperitoneally with an Alzet mini-osmotic pump (model 2001, Durect Corporation, Cupertino Calif.).
Deparaffinized 5 μm sections of liver were treated with Bond ER-2 antigen retrieval (Leica Biosystems, Buffalo Grove, Ill.) for 20 min. After preblocking for 10 min with Rodent Block R (Cat #RBR962G, Biocare, Pacheco, Calif.), sections were incubated with antibody against Ki-67 for 60 min. Immunohistochemistry was performed by incubating sections with rabbit-on-rodent HRP-Polymer (cat #RMR622G, Biocare) for 30 min. Slides were rinsed in Bond diaminobenzidine (Leica Biosystems) for 10 min. After counterstaining with Bond hematoxylin, slides were dehydrated and covered using a coverslip with resinous mounting medium (Leica Biosystems).
Ki-67 positive cells were determined using photographs taken with a 20×-objective in 15 lobules per rat, n=3. To assess the percentage of proliferating hepatocytes and non-parenchymal cells, slides were coded and the percentage Ki-67 positive cells was determined blindly by X.W. To determine zonation of proliferating cells, each lobule was divided into three even fields and the total number of ki-67 positive cells/field was counted.

[4] = test system: BM sprocs (CD133+45+31+ cells); test: Recruitment of BM sprocs after PH: number in bone marrow and circulation by immunomagnetic selection and flow cytometry; conditions: for number of circulating CXCR7+ sprocs: 6 hours after PH
Procedure: Sproc isolation. BM and circulating sprocs were isolated by immunomagnetic selection for CD133 using a CD133 Cell Isolation Kit (Miltenyi Biotec, Auburn, Calif.) and separation with an autoMACS Pro (Miltenyi Biotec, Auburn, Calif.), followed by FACS sorting for CD45 and CD31 (FIG. 26, or Supporting Fig S1).
To determine the number of sprocs in the circulation and BM from Lewis rats 6 hours after partial hepatectomy, CD133+ cells were isolated by immunomagnetic selection for CD133 from peripheral blood or BM. Cell suspensions were preblocked with FcR blocking reagent and incubated for 60 minutes with antibodies to rat CD45 and CD31. CD133+45+31+ cells were quantified by flow cytometry. In some experiments cells were also stained with antibody to rat CXCR7, to identify CD133+45+31+CXCR7+ cells in the circulation.
as §1

MMP-9 = test: Immunoblot of hepatic pro-MMP-9 and bone marrow extracellular fluid MMP-9/pro-MMP-9 after PH; conditions: 6 hours after PH
Procedure: Immunoblotting. Samples from freshly isolated liver were harvested using triple lysis buffer (TLB: 50 mM Tris base, 150 mM NaCl, 3 mM sodium azide, 12 mM sodium deoxycholate, 0.1% SDS, 1% Nonidet-P40) supplemented with 2 mM phenylmethylsulphonyl fluoride (PMSF), 1 mM sodium orthovanadate and 1% protease inhibitors cocktail (Santa Cruz sc-24948). Proteins were purified by centrifugation at 15,000 g at 4° C. for 10 min and quantified using DC™ Protein Assay Kit (BioRad). The samples obtained from bone marrow extracellular fluid were preserved in PBS. For MMP-9 analysis, 100 μg of total protein was used from each sample per lane and resolved on NUPAGE™ NOVEX™ 10% Bis-Tris Protein Gels using MOPS running buffer. Proteins were transferred onto 0.45 μm nitrocellulose membranes via electroblotting using XCell II™ Blot Module (Invitrogen), for 1 h, 30V. For SDF-1 and VEGF analysis, 75 μg of total protein was used from each sample per lane and resolved on NUPAGE™ NOVEX™ 4-12% Bis-Tris Protein Gels using MES running buffer. Proteins were transferred onto 0.2 μm nitrocellulose membranes via electroblotting using Trans-blot SD Semi-Dry Transfer Cell™ (Bio-rad), for 20 min, 25V. Membranes were blocked using NAP-BLOCKER™. […] Membrane digital images were acquired with the Odyssey Infrared Imaging System (LI-COR) and analyzed using the LI-COR IMAGE STUDIO™. […]

`C[C@H]1c2cccc(O)c2C(=O)C2=C(O)[C@]3(O)C(=O)C(C(N)=O)=C(O)[C@@H](N(C)C)[C@@H]3[C@@H](O)[C@@H]21` [doxycycline, Doxycycline] was tested, and the “reduction of hepatic engraftment of BM sprocs compared to control/PH” value (BM sprocs; systemic) was 58%, the “percentage of GFP+ LSECs derived from infused allogeneic progenitors” value [1] was 14% and the “hepatotoxicity (histology)” value (Lewis rats [2]) was “neither doxycycline nor intraportal MMP-2/9 inhibitor given to controls was hepatotoxic”. The “hepatotoxicity (histology)” value (Lewis rats [2]; listed as coxycycline) was “no evidence of toxicity”, the “reduction of liver-to-body weight ratio compared to its solvent control” value (Lewis rats [3]; day 5 after two-thirds PH, doxycycline for 2 days before PH (systemic)) was 29% and the “reduction of CXCR7+ sprocs mobilized to the circulation” value ([4]; after PH, systemic) was 90%. The “reduction of mobilization of BM sprocs to the circulation” value ([4]; after PH, systemic) was 72%.

With isochlorotetracycline the “hepatic engraftment of BM sprocs (% GFP+ LSECs)” value (BM sprocs) was “no effect”.

In the case of `O=C(O)[C@@H](Cc1ccccc1)NS(=O)(=O)c1ccc(-c2ccccc2)cc1` [MMP-2/9 inhibitor, (2R)-2-[(4-Biphenylylsulfonyl)amino]-3-phenylpropionic acid], the “hepatic engraftment of BM sprocs (% GFP+ LSECs)” value (BM sprocs; intraperitoneal) is reported as “reduced”, the “reduction of hepatic engraftment of BM sprocs compared to control/PH” value (BM sprocs; intraperitoneal) is reported as 36% and the “hepatic engraftment of BM sprocs (% GFP+ LSECs)” value (BM sprocs; intraperitoneal, listed as MMP inhibitor) is reported as “reduces”. For the same molecule, the “hepatic engraftment of BM sprocs (% GFP+ LSECs)” value (BM sprocs; intraportal) was “enhanced”, the “increase of hepatic engraftment of GFP+ BM sprocs compared to control/PH” value (BM sprocs; intraportal) was 45% and the “hepatotoxicity (histology)” value (Lewis rats [2]; intraportal) was “no evidence of toxicity; also recorded: neither doxycycline nor intraportal MMP-2/9 inhibitor given to controls was hepatotoxic”. The “hepatocyte proliferation (ki-67) compared to respective control” value (Lewis rats [3]) was “enhances”, the “hepatocyte proliferation (ki-67) compared to respective control” value (Lewis rats [3]; listed as MMPi) was “enhanced” and the “increase of hepatic MMP-9 protein expression after PH” value (MMP-9; intraperitoneal) was “abrogated the increase in hepatic MMP-9 expression”. For the same molecule, the “increase of hepatic MMP-9 protein expression after PH” value (MMP-9; intraportal) was “abrogated the increase in hepatic MMP-9 expression”, the “number of circulating CXCR7+ sprocs” value ([4]; intraperitoneal) was “reduced” and the “number of circulating CXCR7+ sprocs” value ([4]; intraportal infusion) was “increased”. For the same molecule, the “reduction of CXCR7+ sprocs mobilized to the circulation” value ([4]; after PH, intraperitoneal) was 86% and the “increase of CXCR7+ sprocs in the circulation” value ([4]; after PH, intraportal infusion) was 110%.
